Row | melting point [°C] | Structure (SMILES)
1 | 146 to 147 | CCS(=O)c1cc2c(c3c1OC(C)(C)C3)C(c1ccccc1)=NC(C)(C)C2 (centres undefined)
2 | 132 to 136 | CC(C)(C)C(=O)Nc1ccccc1-c1cc2ccccc2[nH]1
3 | 198 to 200 | CCCCc1nc2c(N)nc3ccc(OCCC4CCN(S(C)(=O)=O)CC4)cc3c2n1C
4 | 189 to 190 | COC(=O)C1C(=O)Nc2ccc(Cl)cc2CC1c1ccc(OC)cc1 (centres undefined)
5 | 205 to 206 | CSc1oc2ccc(Br)cc2c(=O)c1-c1ccc(Cl)cc1
6 | 254 to 256 | O=C1CCC(N2C(=O)c3cccc(OCc4ccc5ccccc5n4)c3C2=O)C(=O)N1 (centres undefined)
7 | 235 to 238 | CC(=O)NCCc1ccc(NC(=O)C=C2CC(C(=O)OCc3ccccc3)Nc3cc(Cl)cc(Cl)c32)cc1 (racemic)
8 | 130 to 131 | O=c1c(=NNc2ccccc2)c(=O)n(-c2ccccc2)c2ccccc2n1CCC1C2CC3CC(C2)CC1C3 (centres undefined)
9 | 141 to 144 | Cc1ccc(S(=O)(=O)N2CCSC2=C(c2cccc(C)c2C)C(N)c2cccc(C)c2)cc1 (centres undefined)
10 | 198 to 200 | COc1ccc(C(F)(F)F)cc1Nc1cccn2nc(Nc3cccc(N4CCN(C)CC4)c3)nc12
11 | 211 to 213 | CN(C)C=Nc1nc(=O)n(-c2ccsc2)cc1F
12 | 188 to 190 | CC(=O)OCc1nc2c(NCc3c(C)cccc3C)cc(Br)cc2n1C
13 | 217 to 218 | O=C(Cn1c(=O)n(S(=O)(=O)c2ccc(Cl)cc2)c(=O)c2ccc(Cl)cc21)Nc1ccccc1
14 | 200 | COc1ccc(C(=O)c2[nH]c(=S)[nH]c2C)cc1
15 | 214 to 215 | CCCCNC(=S)NC(Cc1ccccc1)C(=O)Nc1c(C(C)C)cccc1C(C)C (centres undefined)
16 | 66.5 | CC(O)c1cccc(-c2ccc(CC34CCCN3C(=O)N(c3cc(Cl)cc(Cl)c3)C4=O)cc2)c1 (centres undefined)
17 | 207 to 209 | Cc1nc2c(OCc3c(Cl)ccc(N(C)C=O)c3Cl)cccn2c1Br
18 | 90 to 92 | CC(C)(CC(=O)O)SC(CCCc1ccccc1)c1ccc(OCc2ccc3ccccc3n2)cc1 (centres undefined)
19 | 183 to 187 | Cn1cc(-c2ccc(Oc3ccc(F)cc3F)cc2)nc1C(N)=O
20 | 198 | O=C(Nc1cccc2c1C(=O)N(CC(=O)N1CCC(CO)CC1)C2=O)c1ccc(Cl)s1
21 | 209 to 213 | Cc1nc(-c2cccc(CN3C(=O)C4(COc5cc6c(cc54)CCO6)c4ccccc43)c2)no1 (centres undefined)
22 | 95 to 99 | CCCCCCc1cccc(N2CC(=O)NC(=O)N2)c1

Row | melting point [°C] | Structure (SMILES)
23 | 102 | Cc1cc(Cl)ccc1-c1cc(Cl)cc2c1NC(CN)CO2 (centres undefined)
24 | 141 | CCCCn1ccc(-c2ccc3c(c2)OCCN3C2CCOCC2)c(Cl)c1=O
25 | 178 to 179 | COc1ccc(CNC(=O)c2ccc(Cl)cc2OCC(=O)O)cc1
26 | 214 to 216 | Cc1ccc(-c2ccc(C(=O)Nc3ccc4nc(CN5CCOCC5)ccc4c3)cn2)cc1
27 | 74 to 75 | C=CCCC(O)C(C)(C)N1COC(C)=C(c2ccccc2)C1=O (centres undefined)
28 | 114 to 115 | CCOc1ccc(-c2nc(CCC(=O)c3ccccc3C#N)cs2)cc1OCC
29 | 255 to 256 | CCCOc1ccccc1-c1nc2nc(N)nnc2c(=O)[nH]1
30 | 154 to 156 | CC(C#Cc1ccc(C(=O)Cc2ccc(F)cc2)o1)N(O)C(N)=O (centres undefined)
31 | 258 to 259 | Cc1c(-c2ccccc2)nc2ccc(NC(=O)c3cc4cc(F)ccc4n3Cc3cccc(F)c3)cn12
32 | 116 to 118 | CC(C)(C)C(=O)OC(COc1cccc2[nH]ncc12)CN1CCC(COc2ccccc2)CC1 (centres undefined)
33 | 120 to 130 | COc1cc(/C=C/c2cc(/C=C/c3c[nH]c4ccccc34)n[nH]2)ccc1OCc1ccccn1
34 | 238 to 240 | O=C(O)Cc1cccc2c1N=C(c1ccccc1)CC2=O
35 | 134 to 136 | CCOP(=O)(CN(CCCc1ccccc1)C(=O)Cc1cc(C(C)(C)C)c(O)c(C(C)(C)C)c1)OCC
36 | 57 to 59 | Cc1ccc(C#N)c(OC(C)(C)C=O)c1
37 | > 330 | O=C1NC(=O)c2c1c(-c1cc([N+](=O)[O-])ccc1O)cc1[nH]c3ccc(O)cc3c21
38 | 126 | Cn1nnc2cccc(C=O)c21
39 | 163 to 164 | CC(=O)OC1CSC(Oc2cncc(-c3ccc(C(F)(F)F)cc3)c2)C(OC(C)=O)C1OC(C)=O (centres undefined)
40 | 143 to 145 | CCc1cn(C2CC(OC(C)=O)C(CNC(=O)Cc3ccccc3NC(C)=O)O2)c(=O)[nH]c1=O (centres undefined)
41 | 156 to 158 | CCOCCn1c(C)c(C2(c3ccc(N(CC)CC)cc3CC)OC(=O)c3ccccc32)c2ccccc21 (centres undefined)
42 | 208 to 210 | COc1cc2nc(S(=O)Cc3nccc(N(C)C)c3F)[nH]c2cc1OC (centres undefined)
43 | 123 to 124 | Cn1cc(Br)cc(Nc2ccc(C3CNC3)cn2)c1=O
44 | 136 to 146 | COc1cc(C(=O)NS(=O)(=O)c2ccccc2C)ccc1Cc1c(Cl)n(C)c2cc(Cl)c(CC(C)NC(=O)N(C)C)cc12 (centres undefined)

Row | melting point [°C] | Structure (SMILES)
45 | 151 to 154 | OC1(CNc2c(Br)cnc3cc(Cl)ccc23)CCCCC1
46 | 86 | CCOC(=O)CN(c1ccc(Cl)cc1C(O)c1ccccc1Cl)S(=O)(=O)c1ccc(OC)c(OC)c1 (centres undefined)
47 | 116 to 118 | O=C(CBr)c1cc2c(Cl)cccc2s1
48 | 66 to 68 | O=Cc1cccc2oc3ccccc3c12
49 | 102 to 103 | COc1ccc(S(=O)(=O)NCCCCCCCC(=O)O)cc1
50 | 73 to 82 | COc1cc(C2CCN(C[C@H](Oc3ncc4ccc(-c5ccccc5OC)n4n3)C(F)(F)F)CC2)ccc1N
51 | 240 to 242 | CC(C)c1ccc(CN2CCC(NC(=O)NC(=O)c3ccccc3)CC2)cc1
52 | 144 to 145 | O=c1oc(-c2ccc(C(F)(F)F)cc2)nn1Cc1cc(Cl)ccc1O
53 | 296 to 298 | COc1cccc(NC(=O)N(C)Cc2cccc3c2CN(C2CCC(=O)NC2=O)C3=O)c1 (centres undefined)
54 | 231 to 234 | CNc1nc(-c2cc(F)cc(F)c2)nc2nc(-c3ccco3)nn12
55 | 110 to 112 | c1c[nH]c(C(c2ccc[nH]2)C23CC4CC(C2)CC(C(c2ccc[nH]2)c2ccc[nH]2)(C4)C3)c1
56 | 231 | Cc1ccn2c(C)c(-c3ccc4c(c3)N(C)C(=O)CS4)nc2c1
57 | 69 to 73 | O=C(Cl)c1ccc(Cl)c(OCCn2cnnn2)c1Cl
58 | 111 to 112 | COC(=O)Cc1nc2nc(C)cc(Cl)n2n1
59 | 198 to 199 | Cc1cc(C(=O)NS(=O)(=O)Cc2ccccc2C(F)(F)F)nc(Cl)n1
60 | 116 to 118 | CCCCCCCN(CCCCCSc1nc(-c2ccccc2)c(-c2ccccc2)[nH]1)C(=S)Nc1ccc(F)cc1F
61 | 77 to 78 | COC(=O)N(C)C(=O)N(SC(Cl)Cl)c1ccccc1
62 | 169 to 171 | CCOC(=O)c1cn(C2CCCCC2)c2cc(I)ccc2c1=O
63 | 127 to 129 | Cc1cc(C(N)=NO)ccc1[N+](=O)[O-]
64 | 137 | CC(C)(C)[Si](C)(C)Oc1ccc2c(c1)Oc1ccccc1C2=C1C2CC3CC(C2)CC1C3
65 | 121 to 122 | CC(=O)Nc1ccc(OC(F)(F)C(F)F)cc1
66 | 230 to 232 | COc1cc(N2CCOCC2)ccc1Nc1nc(Nc2ccc(OC)c3c2N(C)C(=O)CCC3)ncc1Cl

Row | melting point [°C] | Structure (SMILES)
67 | 130 to 131 | O=C(N[C@@H](CO)c1ccccc1)c1ccco1
68 | 193 to 196 | OC1CSC(Oc2cncc(-c3cccnc3F)c2)C(O)C1O (centres undefined)
69 | 157 to 159 | CCc1nc(/C=C/c2cn(-c3ccccc3)nc2O)co1
70 | 129 to 131 | O=C(O)COc1cccc2c1OCc1sc(SC(c3ccccc3)c3ccccc3)nc1-2
71 | 93 to 98 | O=C1C(=O)c2ccc(-c3ccccc3)cc2C2=C1SCC1(CCN(CC(O)COc3ccc(Cl)cc3)CC1)O2 (centres undefined)
72 | 118 | COc1ccc2oc(=O)c(-c3ccccc3)c(OCCN3CCOCC3)c2c1
73 | > 300 | CC1(C)C(=O)Nc2ccc(NC(=O)c3ccncc3)cc21
74 | 241 to 243 | O=C(O)c1ccc(C(=O)NOCc2ccc3ccccc3c2)cc1
75 | 155 to 160 | ON=Cc1ccc(OCc2coc(-c3ccc(C(F)(F)F)cc3)n2)cc1
76 | 95 to 96 | CCc1nc(Cl)c(C(=O)N(C)CC)n1Cc1ccc2oc(-c3ccccc3NC(=O)OC(C)(C)C)c(Br)c2c1
77 | 61 to 62 | C=CCOc1ccc(CC(=O)O)cc1
78 | 243 to 245 | COc1ccc2[nH]c3c(C)cnc(Cl)c3c2c1
79 | 135 to 136 | O=C1COCCCOC(=O)COCCCO1
80 | 174 to 178 | O=[N+]([O-])c1cccc(OCCc2c[nH]cn2)c1
81 | 213 to 214 | CCCCCCCCCCCCOC(=O)CCC(=O)c1ccc(NCc2ccc3ccc4nc(C)[nH]c(=O)c4c3c2)cc1
82 | 230 | CCCC1=C(C#N)C(c2ccccc2C)c2c[nH]nc2N1 (centres undefined)
83 | 155 to 158 | COc1cc(C(O)c2ccccc2S(=O)(=O)Nc2ccccc2C)cc2c1OCO2 (centres undefined)
84 | 191 to 193 | CCOC(=O)c1ncc2[nH]c3ccc(S(=O)(=O)N(C)C)cc3c2c1COC
85 | 158 to 160 | CN(C)c1ccc(Cn2cnc3c(-c4ccco4)ncnc32)cc1
86 | 208 to 210 | CCCCOCCOc1ccc(-c2ccc3c(c2)C=C(C(=O)O)CCN3S(C)(=O)=O)cc1
87 | 130 to 132 | CN(C(=O)Nc1nc(OCC(F)(F)F)nc(OCC(F)(F)F)n1)c1ccc(C(F)(F)F)cc1
88 | 107 to 108 | Cc1oc(-c2ccccc2)nc1COc1ccc(CON=C(CC(=O)O)c2ccccc2)cc1

Row | Structure (SMILES) | melting point [°C]
89 | Cc1cccc2c1CCN(C1CN3CCC1CC3)C2=O (racemic) | > 270
90 | O=C1CC(Cc2cccc(Cl)c2)CN1 (centres undefined) | 117 to 119
91 | CN1C(=O)N(c2cc(F)c(C#N)cc2F)C(=O)CC1(N)C(F)(F)F (centres undefined) | 115
92 | CCOC(=O)Nc1ncc(-c2nc3ccccc3c(=O)n2-c2cccc(OC)c2)s1 | 235 to 236
93 | CC12CC(N3CCOCC3)C(O)CC1CCC1C2CCC2(C)C(O)C(N3CCCCC3)CC12 (centres undefined) | 222 to 229
94 | CN(C)c1ncn2c1C[N+]([O-])=C(c1ccccc1F)c1cc(Cl)ccc1-2 | 203 to 206

From a melting point compilation (Tetko et al.; mined from patent text by program, amines drawn as free bases though some values may be those of a salt)
